Measurements published in US20070232698A1, “Slimming Skin External Preparation and Cosmetic Containing the Same” (priority 2004, published 2007).
Where a name gives a salt, the structure may show the parent alone.

Key:
Mouse 3T3-F442A cells = experiment: Triglyceride accumulation in adipocytes with base acylcarnitine plus test substance (oil red staining); assay type: cell-based; conditions: 4 days, control = base alone; for accumulated triglyceride amount relative to the control (100%), Base Hexadecanoyl-L-carnitine hydrochloride: base hexadecanoyl-L-carnitine hydrochloride plus 50 μM test substance (ginkgo biloba extract 30 μg/ml; garcinia extract as hydroxycitric acid); for accumulated triglyceride amount relative to the control (100%), Base Octadecanoyl-L-carnitine hydrochloride: base octadecanoyl-L-carnitine hydrochloride plus 50 μM test substance (ginkgo biloba extract 30 μg/ml; garcinia extract as hydroxycitric acid)
Method: The incubation was continued for another 4 days. The control was incubated using a culture medium that contained the base alone (no test substances). After the 4-days incubation, the cells were washed three times with Dulbecco's PBS (−). The triglyceride amount accumulated in the cells was quantitatively determined by oil red staining. […] Mouse 3T3-F442A cells were incubated as described in Example 10, and differentiation into adipocytes was observed. […] The incubation was continued for another 4 days. The control was incubated using a culture medium that contained the base alone (no test substances). After the 4-days incubation, the cells were washed three times with Dulbecco's PBS (−). The triglyceride amount accumulated in the cells was quantitatively determined by oil red staining.

[1] = test system: skin together with subcutaneous fat tissues; experiment: Subcutaneous fat breakdown test (rat abdominal skin with subcutaneous fat in Franz diffusion cell); conditions: lower cell PBS (−), 37° C., average of three measurements, control (none) 20
Method: A male Wister rat, 10 weeks old, was shaved on the abdomen, and the skin was removed together with subcutaneous fat tissues and was placed in a Franz diffusion cell. An upper cell on the skin surface was filled with a buffer solution containing the Example 1 test substance, and a lower cell was filled with Dulbecco's PBS (−). The diffusion cell was held at 37° C. and was allowed to stand for 8 or 16 hours. After the lapse of each of the standing times, PBS (−) was withdrawn from the lower cell. The content of free glycerol resulting from the fat breakdown was measured with use of Glycerol Test E Wako. The results are averages of three measurements.
The free glycerol contents were measured in the same manner as in Example 3, except that the two carnitine and carnitine derivative 1) and 6) used in Example 4 were tested. The results are averages of three measurements.
The free glycerol contents were measured in the same manner as in Example 3, except that the three carnitine and carnitine derivatives 1), 7) and 8) used in Example 7 were tested. The results are averages of three measurements.

[2] = test system: human skin tissue three dimensional model (TESTSKIN LSD-d); experiment: Comparison of percutaneous absorption properties: carnitine content in skin model; conditions: 1% by mass solution, 50 μL on tissue surface for 2 hours; for carnitine content in the skin model, After 2-hour incubation: then 2-hour incubation at 37° C.; for carnitine content in the skin model, After 6-hour incubation: then 6-hour incubation at 37° C.; for carnitine content in the skin model, After 12-hour incubation: then 12-hour incubation at 37° C.
Method: The test substances were each dissolved in Dulbecco's PBS (−) to give a 1% by mass solution of the test substance. The test substance solutions were placed, each 50 μL, to a tissue surface of human skin tissue three dimensional model (TESTSKIN™ LSD-d, available from TOYOBO CO., LTD.), and were incubated at 37° C. in a 5% CO2 atmosphere for 2 hours. Thereafter the test substance solutions were aspirated out, and the skin models were further incubated at 37° C. in a 5% CO2 atmosphere for 2, 6 or 12 hours. The skin models were sampled after the lapse of each of the incubation times. The skin models sampled at the incubation times were washed with Dulbecco's PBS (−), and the tissue surfaces on which the test substances had been placed were punched out with a punch 6 mm in diameter. The skin models were then homogenated in a HEPES buffer solution (pH: 7.2), and were quantitatively analyzed using a high performance liquid chromatography to determine the carnitine content in the skin model.
From the analysis results, the carnitine contents in the skin models (unit: nmol/mg skin protein) were obtained for the test substances at each of the incubation times.

Mouse 3T3 adipocytes = experiment: Measurement of fat metabolic activity for mouse 3T3 adipocytes (free glycerol in culture medium); assay type: cell-based; conditions: 250 μM test substance, medium recovered after 24 hours; control (none) = 100
Method: The five carnitine and carnitine derivatives 1) to 5) used in Example 1 were tested. The fat metabolic activity was measured and compared by quantitative determination of glycerol in the culture medium based on the fact that metabolism of the fat accumulated in adipocytes releases glycerol and free fatty acid to the culture medium.
Mouse 3T3 cells as the preadipocytes were disseminated on a 10 cm-diameter dish such that 1×10^4 cells were on the dish. […] Thereafter, the culture medium was replaced with a 10% FCS-containing DMEM culture medium that contained […] of dexamethasone, 0.5 mM of isobutylmethylxanthine and 10 μg/ml of insulin, and incubation was continued for another 2 days. Subsequently, the culture medium was replaced again with a 10% FCS-containing ordinary DMEM culture medium, and incubation was performed for another week, resulting in differentiation of the preadipocytes into adipocytes. Next, the culture medium was replaced with an ordinary culture medium that contained 250 μM of the carnitine or carnitine derivative of the five substances 1) to 5) used in Example 1, and the culture medium was recovered after 24 hours. The cells were washed with Dulbecco's PBS (−) and were recovered. Cells incubated in the absence of the test substances were used as the control. The glycerol content in the culture medium was quantitatively determined using Glycerol Test E Wako (Wako Pure Chemical Industries, Ltd.).
The fat metabolic activity for mouse 3T3 adipocytes was determined based on the free glycerol content in the same manner as in Example 2, except that the two carnitine and carnitine derivative 1) and 6) used in Example 4 were tested.
The fat metabolic activity for mouse 3T3 adipocytes was determined based on the free glycerol content in the same manner as in Example 2, except that the three carnitine and carnitine derivatives 1), 7) and 8) used in Example 7 were tested.

Compound | accumulated triglyceride amount relative to the control (100%), Base Hexadecanoyl-L-carnitine hydrochloride (Mouse 3T3-F442A cells) | accumulated triglyceride amount relative to the control (100%), Base Octadecanoyl-L-carnitine hydrochloride (Mouse 3T3-F442A cells) | Free glycerol, After 8 hours [1] | Free glycerol, After 16 hours [1] | carnitine content in the skin model, After 2-hour incubation [2] | carnitine content in the skin model, After 6-hour incubation [2] | carnitine content in the skin model, After 12-hour incubation [2] | Free glycerol content (% relative to the control) (Mouse 3T3 adipocytes)
Cc1c(C)c2c(c(C)c1OP(=O)([O-])[O-])CCC(C)(CCCC(C)CCCC(C)CCCC(C)C)O2.[Na+].[Na+] (racemic) [dl-α-Tocopherol phosphate sodium salt] | 100% | 102% |  |  |  |  |  | 
Cc1c(C)c2c(c(C)c1OC(=O)CN(C)C)CCC(C)(CCCC(C)CCCC(C)CCCC(C)C)O2.Cl (racemic) [dl-α-Tocopherol-N,N-dimethylglycine ester hydrochloride] | 98% | 99% |  |  |  |  |  | 
CC(C)Cn1c(=O)n(C)c(=O)c2[nH]cnc21 [3-Isobutyl-1-methylxanthine] | 50% | 57% |  |  |  |  |  | 
O=C1O[C@H]([C@@H](O)CO)C(O)=C1O[C@H]1O[C@H](CO)[C@@H](O)[C@H](O)[C@H]1O [Ascorbic acid-2-glucoside] | 99% | 102% |  |  |  |  |  | 
O=C1O[C@H]([C@@H](O)CO)C(O)=C1OP(=O)([O-])[O-].[Mg+2] [Ascorbic acid-2-phosphate magnesium salt] | 98% | 97% |  |  |  |  |  | 
CCCCCCCCCCCCCCCC(=O)OC[C@H](O)[C@H]1OC(=O)C(OP(=O)([O-])[O-])=C1[O-].[Na+].[Na+].[Na+] [Ascorbic acid-2-phosphoric acid-6-palmitate sodium salt] | 96% | 96% |  |  |  |  |  | 
OCC(O)CO [Glycerol] | 118% | 113% |  |  |  |  |  | 
CCCCCCCCCCCCCCCC(=O)OC(CC(=O)O)(C(=O)O)C(O)C(=O)O (centres unmarked) [Hydroxycitric acid-2-palmitate] | 70% | 72% |  |  |  |  |  | 
CC(C)NCC(O)c1ccc(O)c(O)c1 (centres unmarked) [Isoproterenol hydrochloride] | 60% | 64% |  |  |  |  |  | 
C[N+](C)(C)C[C@H](O)CC(=O)[O-].Cl [L-carnitine hydrochloride] | 99% | 102% |  |  |  |  |  | 
CCCCCCCCCCCCCC(=O)O [Myristic acid] | 99% | 98% |  |  |  |  |  | 
CCCCCCCCCCCCCCCC(=O)O [Palmitic acid] | 102% | 100% |  |  |  |  |  | 
Cc1ccc(N(CC2=NCCN2)c2cccc(O)c2)cc1 [Phentolamine hydrochloride] | 68% | 65% |  |  |  |  |  | 
CCCCCCCCCCCCCCCCCC(=O)O [Stearic acid] | 101% | 99% |  |  |  |  |  | 
C[N+](C)(C)C[C@H](O)CC(=O)[O-] [Test substance 1), L-Carnitine, reference compound] |  |  | 120 µmol/mL | 125 µmol/mL | 12 nmol/mg skin protein | 12 nmol/mg skin protein | 11 nmol/mg skin protein | 120 % relative to the control
CCCCCCCCCCCCCCCCOC(=O)C[C@@H](O)C[N+](C)(C)C.[Cl-] [Test substance 6), L-Carnitine hexadecyl ester hydrochloride] |  |  | 110 µmol/mL | 116 µmol/mL | 5 nmol/mg skin protein | 11 nmol/mg skin protein | 26 nmol/mg skin protein | 165 % relative to the control
CCCCCCCCCCCCCCCC(=O)O[C@H](CC(=O)OC)C[N+](C)(C)C.[Cl-] [Test substance 7), Hexadecanoyl-L-carnitine methyl ester hydrochloride] |  |  | 68 µmol/mL | 145 µmol/mL | 2 nmol/mg skin protein | 9 nmol/mg skin protein | 19 nmol/mg skin protein | 143 % relative to the control
CCCCCCCCCCCCCCCCOC(=O)C[C@H](C[N+](C)(C)C)OC(=O)CCCCCCCCCCCCCCC.[Cl-] [Test substance 8), Hexadecanoyl-L-carnitine hexadecyl ester hydrochloride] |  |  | 75 µmol/mL | 150 µmol/mL | 2 nmol/mg skin protein | 8 nmol/mg skin protein | 21 nmol/mg skin protein | 148 % relative to the control
Cn1c(=O)c2[nH]cnc2n(C)c1=O [Theophylline] | 62% | 58% |  |  |  |  |  | 
Calcium hydroxycitrate | 89% | 88% |  |  |  |  |  | 
